This passage reports stent biocompatibility results from patent US20050064011A1, “Implantable or insertable medical devices containing phenolic compound for inhibition of restenosis” (priority 2003, published 2005).

The experiment deals with coronary arteries of juvenile domestic swine. Nature of the experiment: Stent implantation in porcine coronary artery model, morphometric analysis after 28 days. As to conditions: BHT in copolymer stent coating. Format: in vivo. The source says: The following are placed in the coronary arteries of juvenile domestic swine: (a) oversized bare metal stents, (b) EtO-sterilized, copolymer-coated, BHT-free stents, (c) electron-beam-sterilized, copolymer-coated, BHT-free stents, (d) electron-beam-sterilized, stents with coating containing 5% BHT and 95% copolymer, and (e) electron beam-sterilized, stents with coating containing 10% BHT and 90% copolymer. After 28 days, the stents are harvested from the animals and an examination of morphometric % restenosis and neointimal thickening area was conducted. Morphometric analysis is performed on one specimen from each stented segment in a blinded manner. Morphometry is completed using a PC based digital planimetry system. Morphometric % restenosis is determined by neointimal area÷internal elastic lamina (IEL) area×100; while neointimal area is determined by internal elastic lamina (IEL)−injured luminal area. The results are presented in the table to follow: Statistical methods are as follows: Data are presented as mean±S.D. Comparisons between the control (bare stent) and treated stents were made using unpaired t-test. Improvement in morphometic % restenosis and neointimal area, relative to bare stents, was […] considered to be statistically significant for values of p≦0.05.

Take `Cc1cc(C(C)(C)C)c(O)c(C(C)(C)C)c1` [BHT, butylated hydroxytoluene]: the stent biocompatibility entry was “enhances stent biocompatibility”.
